For data set [1] the following is noted: 101.33 kPa, Liquid; for viscosity: Concentric cylinders viscometry; for mass density: Vibrating tube method.
Data set [2] is described as follows: refractive index (Na D-line) (dimensionless). Conditions: 101.33 kPa, Liquid, Standard Abbe refractometry.

The record followed here is the NIST ThermoML archive (doi:10.1021/je300938w).

Numbers after ± are expanded uncertainties.

In general, viscosity refers to the internal friction of a fluid under shear. A word on the mass density: it is mass per unit of volume. A word on the refractive index: it is the speed of light in vacuum divided by its phase velocity in the sample.

In the case of `CC(O)CN` (centres undefined) [1-amino-2-propanol], in data set [1] (298.15 K), the viscosity came to 23.26 ± 0.41 mPa·s and the mass density turned out to be 956.644 ± 1 kg/m3. For the same compound, in data set [2] (298.15 K), the refractive index is 1.4459 ± 0.00082.
As for `CC(O)CNCC(C)O` (centres undefined) [N-(2-hydroxypropyl)-2-hydroxy-1-propanamine], the results for the viscosity in data set [1] (313.15 K) and in data set [1] (323.15 K) were 308.54 ± 11 mPa·s and 123.21 ± 4.4 mPa·s, respectively. The mass density in data set [1] (313.15 K) was 992.46 ± 1.1 kg/m3; in data set [1] (323.15 K), 984.835 ± 1.1 kg/m3. Besides, the refractive index came to 1.45517 ± 0.00068 in data set [2] (313.15 K) and 1.45139 ± 0.00068 in data set [2] (323.15 K).
Take `OCCNCCO` [diethanolamine]: in data set [1] (298.15 K), the viscosity came to 566.57 ± 46 mPa·s and the mass density is 1093.22 ± 0.17 kg/m3. In addition, the refractive index in data set [2] (298.15 K) came to 1.4764 ± 0.00073.
For the compound `CC(O)CN(CC(C)O)CC(C)O` (centres undefined) [triisopropanolamine], in data set [1] (323.15 K), the viscosity is recorded as 132.3 ± 5.5 mPa·s and the mass density is 990.616 ± 6.8 kg/m3. The refractive index in data set [2] (323.15 K) is on record as 1.45233 ± 0.0012.
Take `O` [water]: the figures for the viscosity in data set [1] (293.15 K) and in data set [1] (298.15 K) were 1.019 ± 0.01 mPa·s and 0.9123 ± 0.0097 mPa·s, respectively. The refractive index in data set [2] (293.15 K) was 1.33304 ± 0.00042; in data set [2] (298.15 K), 1.33249 ± 0.00042.
